± gives the expanded uncertainty stated by the source.
Assay: xn = mol fraction of the nth substance listed
Details: 101 kPa, Liquid; for speed of sound: Linear variable-path acoustic interferometer; for mass density: Pycnometric method; for viscosity: Capillary tube (Ostwald / Ubbelohde) method

C=C(C)C(=O)OC [methyl methacrylate] + CN(C)C=O
speed of sound (303.15 K, x1 = 0.578): 1292.3 ± 1.5 m/s
speed of sound (303.15 K, x1 = 0.6552): 1270.3 ± 1.5 m/s
speed of sound (303.15 K, x1 = 0.7204): 1251.4 ± 1.4 m/s
speed of sound (303.15 K, x1 = 0.7873): 1231.8 ± 1.4 m/s
speed of sound (303.15 K, x1 = 0.8548): 1211.8 ± 1.4 m/s
speed of sound (303.15 K, x1 = 0.9268): 1190.4 ± 1.4 m/s
speed of sound (303.15 K, x1 = 1): 1168.5 ± 1.4 m/s
mass density (303.15 K, x1 = 0.0696): 939.58 ± 0.3 kg/m3
mass density (303.15 K, x1 = 0.1417): 939.03 ± 0.29 kg/m3
mass density (303.15 K, x1 = 0.211): 938.49 ± 0.29 kg/m3
mass density (303.15 K, x1 = 0.2855): 937.9 ± 0.29 kg/m3
mass density (303.15 K, x1 = 0.3573): 937.33 ± 0.29 kg/m3
mass density (303.15 K, x1 = 0.4308): 936.73 ± 0.28 kg/m3
mass density (303.15 K, x1 = 0.5042): 936.13 ± 0.28 kg/m3
mass density (303.15 K, x1 = 0.578): 935.52 ± 0.28 kg/m3
mass density (303.15 K, x1 = 0.6552): 934.88 ± 0.28 kg/m3
mass density (303.15 K, x1 = 0.7204): 934.33 ± 0.27 kg/m3
mass density (303.15 K, x1 = 0.7873): 933.76 ± 0.27 kg/m3
mass density (303.15 K, x1 = 0.8548): 933.19 ± 0.27 kg/m3
mass density (303.15 K, x1 = 0.9268): 932.55 ± 0.27 kg/m3
mass density (303.15 K, x1 = 1): 931.89 ± 0.26 kg/m3
viscosity (308.15 K, x1 = 0.0696): 0.694 ± 0.0062 mPa·s
viscosity (308.15 K, x1 = 0.1417): 0.6678 ± 0.006 mPa·s
viscosity (308.15 K, x1 = 0.211): 0.6435 ± 0.0058 mPa·s
viscosity (308.15 K, x1 = 0.2855): 0.6191 ± 0.0056 mPa·s
viscosity (308.15 K, x1 = 0.3573): 0.5978 ± 0.0054 mPa·s
viscosity (308.15 K, x1 = 0.4308): 0.5793 ± 0.0053 mPa·s
viscosity (308.15 K, x1 = 0.5042): 0.563 ± 0.0051 mPa·s
viscosity (308.15 K, x1 = 0.578): 0.5488 ± 0.005 mPa·s
viscosity (308.15 K, x1 = 0.6552): 0.5358 ± 0.0049 mPa·s
viscosity (308.15 K, x1 = 0.7204): 0.5268 ± 0.0048 mPa·s
viscosity (308.15 K, x1 = 0.7873): 0.5188 ± 0.0048 mPa·s
viscosity (308.15 K, x1 = 0.8548): 0.5113 ± 0.0047 mPa·s
viscosity (308.15 K, x1 = 0.9268): 0.5038 ± 0.0046 mPa·s
viscosity (308.15 K, x1 = 1): 0.496 ± 0.0046 mPa·s
speed of sound (308.15 K, x1 = 0.0696): 1411 ± 1.6 m/s
speed of sound (308.15 K, x1 = 0.1417): 1392.3 ± 1.6 m/s
speed of sound (308.15 K, x1 = 0.211): 1374.3 ± 1.6 m/s
speed of sound (308.15 K, x1 = 0.2855): 1354.7 ± 1.5 m/s
speed of sound (308.15 K, x1 = 0.3573): 1335.6 ± 1.5 m/s
speed of sound (308.15 K, x1 = 0.4308): 1315.7 ± 1.5 m/s
speed of sound (308.15 K, x1 = 0.5042): 1295.5 ± 1.5 m/s
speed of sound (308.15 K, x1 = 0.578): 1275 ± 1.5 m/s
speed of sound (308.15 K, x1 = 0.6552): 1253.3 ± 1.4 m/s
speed of sound (308.15 K, x1 = 0.7204): 1234.7 ± 1.4 m/s
speed of sound (308.15 K, x1 = 0.7873): 1215.4 ± 1.4 m/s
speed of sound (308.15 K, x1 = 0.8548): 1195.7 ± 1.4 m/s
speed of sound (308.15 K, x1 = 0.9268): 1174.4 ± 1.4 m/s
speed of sound (308.15 K, x1 = 1): 1152.6 ± 1.3 m/s
mass density (308.15 K, x1 = 0.0696): 934.99 ± 0.31 kg/m3
mass density (308.15 K, x1 = 0.1417): 934.35 ± 0.3 kg/m3
mass density (308.15 K, x1 = 0.211): 933.72 ± 0.3 kg/m3
mass density (308.15 K, x1 = 0.2855): 933.03 ± 0.3 kg/m3
mass density (308.15 K, x1 = 0.3573): 932.36 ± 0.3 kg/m3
mass density (308.15 K, x1 = 0.4308): 931.67 ± 0.29 kg/m3
mass density (308.15 K, x1 = 0.5042): 930.98 ± 0.29 kg/m3
mass density (308.15 K, x1 = 0.578): 930.28 ± 0.29 kg/m3
mass density (308.15 K, x1 = 0.6552): 929.55 ± 0.28 kg/m3
mass density (308.15 K, x1 = 0.7204): 928.93 ± 0.28 kg/m3
mass density (308.15 K, x1 = 0.7873): 928.28 ± 0.28 kg/m3
mass density (308.15 K, x1 = 0.8548): 927.63 ± 0.28 kg/m3
mass density (308.15 K, x1 = 0.9268): 926.91 ± 0.28 kg/m3
mass density (308.15 K, x1 = 1): 926.15 ± 0.27 kg/m3
viscosity (313.15 K, x1 = 0.0696): 0.662 ± 0.0059 mPa·s
viscosity (313.15 K, x1 = 0.1417): 0.6373 ± 0.0057 mPa·s
viscosity (313.15 K, x1 = 0.211): 0.6142 ± 0.0056 mPa·s
viscosity (313.15 K, x1 = 0.2855): 0.5913 ± 0.0054 mPa·s
viscosity (313.15 K, x1 = 0.3573): 0.5713 ± 0.0052 mPa·s
viscosity (313.15 K, x1 = 0.4308): 0.5529 ± 0.0051 mPa·s
viscosity (313.15 K, x1 = 0.5042): 0.5375 ± 0.0049 mPa·s
viscosity (313.15 K, x1 = 0.578): 0.5237 ± 0.0048 mPa·s
viscosity (313.15 K, x1 = 0.6552): 0.5115 ± 0.0047 mPa·s
viscosity (313.15 K, x1 = 0.7204): 0.503 ± 0.0047 mPa·s
viscosity (313.15 K, x1 = 0.7873): 0.4951 ± 0.0046 mPa·s
viscosity (313.15 K, x1 = 0.8548): 0.4875 ± 0.0045 mPa·s
viscosity (313.15 K, x1 = 0.9268): 0.4796 ± 0.0045 mPa·s
viscosity (313.15 K, x1 = 1): 0.4723 ± 0.0044 mPa·s
speed of sound (313.15 K, x1 = 0.0696): 1393.7 ± 1.6 m/s
speed of sound (313.15 K, x1 = 0.1417): 1375.1 ± 1.6 m/s
speed of sound (313.15 K, x1 = 0.211): 1357.1 ± 1.5 m/s
speed of sound (313.15 K, x1 = 0.2855): 1337.5 ± 1.5 m/s
speed of sound (313.15 K, x1 = 0.3573): 1318.4 ± 1.5 m/s
speed of sound (313.15 K, x1 = 0.4308): 1298.4 ± 1.5 m/s
speed of sound (313.15 K, x1 = 0.5042): 1278.3 ± 1.5 m/s
speed of sound (313.15 K, x1 = 0.578): 1257.9 ± 1.4 m/s
speed of sound (313.15 K, x1 = 0.6552): 1236.2 ± 1.4 m/s
speed of sound (313.15 K, x1 = 0.7204): 1217.7 ± 1.4 m/s
speed of sound (313.15 K, x1 = 0.7873): 1198.4 ± 1.4 m/s
speed of sound (313.15 K, x1 = 0.8548): 1178.7 ± 1.4 m/s
speed of sound (313.15 K, x1 = 0.9268): 1157.4 ± 1.4 m/s
speed of sound (313.15 K, x1 = 1): 1135.4 ± 1.3 m/s
mass density (313.15 K, x1 = 0.0696): 930.4 ± 0.32 kg/m3
mass density (313.15 K, x1 = 0.1417): 929.67 ± 0.31 kg/m3
mass density (313.15 K, x1 = 0.211): 928.95 ± 0.31 kg/m3
mass density (313.15 K, x1 = 0.2855): 928.16 ± 0.31 kg/m3
mass density (313.15 K, x1 = 0.3573): 927.4 ± 0.31 kg/m3
mass density (313.15 K, x1 = 0.4308): 926.61 ± 0.3 kg/m3
mass density (313.15 K, x1 = 0.5042): 925.83 ± 0.3 kg/m3
mass density (313.15 K, x1 = 0.578): 925.04 ± 0.3 kg/m3
mass density (313.15 K, x1 = 0.6552): 924.22 ± 0.29 kg/m3
mass density (313.15 K, x1 = 0.7204): 923.53 ± 0.29 kg/m3
mass density (313.15 K, x1 = 0.7873): 922.81 ± 0.29 kg/m3
mass density (313.15 K, x1 = 0.8548): 922.07 ± 0.29 kg/m3
mass density (313.15 K, x1 = 0.9268): 921.26 ± 0.29 kg/m3
mass density (313.15 K, x1 = 1): 920.41 ± 0.28 kg/m3
viscosity (318.15 K, x1 = 0.0696): 0.6419 ± 0.0058 mPa·s
viscosity (318.15 K, x1 = 0.1417): 0.6179 ± 0.0056 mPa·s
viscosity (318.15 K, x1 = 0.211): 0.5953 ± 0.0054 mPa·s
viscosity (318.15 K, x1 = 0.2855): 0.5728 ± 0.0052 mPa·s
viscosity (318.15 K, x1 = 0.3573): 0.553 ± 0.0051 mPa·s
viscosity (318.15 K, x1 = 0.4308): 0.5345 ± 0.0049 mPa·s
viscosity (318.15 K, x1 = 0.5042): 0.5185 ± 0.0048 mPa·s
viscosity (318.15 K, x1 = 0.578): 0.5045 ± 0.0047 mPa·s
viscosity (318.15 K, x1 = 0.6552): 0.4925 ± 0.0046 mPa·s
viscosity (318.15 K, x1 = 0.7204): 0.4837 ± 0.0045 mPa·s
viscosity (318.15 K, x1 = 0.7873): 0.475 ± 0.0044 mPa·s
viscosity (318.15 K, x1 = 0.8548): 0.467 ± 0.0044 mPa·s
viscosity (318.15 K, x1 = 0.9268): 0.4583 ± 0.0043 mPa·s
viscosity (318.15 K, x1 = 1): 0.4499 ± 0.0042 mPa·s
speed of sound (318.15 K, x1 = 0.0696): 1375.2 ± 1.6 m/s
speed of sound (318.15 K, x1 = 0.1417): 1356.8 ± 1.6 m/s
speed of sound (318.15 K, x1 = 0.211): 1338.9 ± 1.5 m/s
speed of sound (318.15 K, x1 = 0.2855): 1319.4 ± 1.5 m/s
speed of sound (318.15 K, x1 = 0.3573): 1300.3 ± 1.5 m/s
speed of sound (318.15 K, x1 = 0.4308): 1280.5 ± 1.5 m/s
speed of sound (318.15 K, x1 = 0.5042): 1260.5 ± 1.5 m/s
speed of sound (318.15 K, x1 = 0.578): 1240.2 ± 1.4 m/s
speed of sound (318.15 K, x1 = 0.6552): 1218.7 ± 1.4 m/s
speed of sound (318.15 K, x1 = 0.7204): 1200.3 ± 1.4 m/s
speed of sound (318.15 K, x1 = 0.7873): 1181.2 ± 1.4 m/s
speed of sound (318.15 K, x1 = 0.8548): 1161.6 ± 1.4 m/s
speed of sound (318.15 K, x1 = 0.9268): 1140.4 ± 1.3 m/s
speed of sound (318.15 K, x1 = 1): 1118.3 ± 1.3 m/s
mass density (318.15 K, x1 = 0.0696): 925.81 ± 0.33 kg/m3
mass density (318.15 K, x1 = 0.1417): 924.99 ± 0.32 kg/m3
mass density (318.15 K, x1 = 0.211): 924.18 ± 0.32 kg/m3
mass density (318.15 K, x1 = 0.2855): 923.29 ± 0.32 kg/m3
mass density (318.15 K, x1 = 0.3573): 922.44 ± 0.31 kg/m3
mass density (318.15 K, x1 = 0.4308): 921.55 ± 0.31 kg/m3
mass density (318.15 K, x1 = 0.5042): 920.68 ± 0.31 kg/m3
mass density (318.15 K, x1 = 0.578): 919.8 ± 0.31 kg/m3
mass density (318.15 K, x1 = 0.6552): 918.89 ± 0.3 kg/m3
mass density (318.15 K, x1 = 0.7204): 918.12 ± 0.3 kg/m3
mass density (318.15 K, x1 = 0.7873): 917.33 ± 0.3 kg/m3
mass density (318.15 K, x1 = 0.8548): 916.51 ± 0.3 kg/m3
mass density (318.15 K, x1 = 0.9268): 915.61 ± 0.29 kg/m3
mass density (318.15 K, x1 = 1): 914.66 ± 0.29 kg/m3
